Experimental data reported in PMC11352273, “The Proapoptotic Action of Pyrrolidinedione–Thiazolidinone Hybrids towards Human Breast Carcinoma Cells Does Not Depend on Their Genotype” (Cancers, 2024).
Several values for one entry are separate records, joined by “and”; a condition that tells them apart may be missing. Identical values can stand only once.

Columns and labels:
[1] = system: ICAM-1 in MDA-MB-231 cells; experiment: ICAM-1 ELISA in culture supernatants; assay type: cell-based, human; details: for ICAM-1 concentration: 2 µM (highest dose), control 841.55 pg/mL
Description: In order to determine the Beclin-1 concentration in the cell lysates, the SimpleStep ELISA (Abcam, Cambridge, UK) Kit was used. MMP-2, MMP-9, and ICAM-1 concentrations were measured in culture supernatants using high-sensitivity human SimpleStep ELISA kits (Abcam, Cambridge, UK) according to the manufacturer’s protocols. The LC3B ELISA kit (BT LAB, Shanghai, China) was used to check the protein concentration in cell lysates from analyzed breast cancer cells. The procedure for preparing the samples was shown previously.

[2] = system: MAP1LC3B in MCF-7 cells; experiment: qPCR gene expression; assay type: cell-based, human; details: MCF-7, 24 h, 1 µM
Description: (§1) Total RNA was isolated using the RNeasy Mini Kit (Qiagen, Venlo, The Netherlands) according to the manufacturer’s protocol and quantified on a NanoDrop spectrophotometer (NanoDrop™ One/OneC, ThermoFisher, Waltham, MA, USA). Next, 1 μg of RNA from every sample was reverse transcribed using a High-Capacity cDNA Reverse Transcription Kit (ThermoFisher, Waltham, MA, USA) according to the standard manufacturer’s instructions. The expression of genes, namely MAP1LC3b (Bio-Rad, Hercules, CA, USA) and BECN1 (Bio-Rad, Hercules, CA, USA), was evaluated using SsoAdvanced Universal SYBR Green Supermix (Bio-Rad, Hercules, CA, USA) on the StepOne Plus system (ThermoFisher, Waltham, MA, USA). StepOne Software v2.3 (Thermo Fisher Scientific, Waltham, MA, USA) was used for results calculations. The results were normalized to GAPDH (Bio-Rad, Hercules, CA, USA) and untreated cells (control). Data were presented as a relative expression using the 2^−ΔΔCt method.

[3] = system: BECN1 in MCF-7 cells; experiment: qPCR gene expression; assay type: cell-based, human; details: MCF-7, 24 h, 1 µM
Description: as §1

[4] = system: BECN1 in MDA-MB-231 cells; experiment: qPCR gene expression; assay type: cell-based, human; details: MDA-MB-231, 24 h, 1 µM
Description: as §1

[5] = system: MAP1LC3B in MDA-MB-231 cells; experiment: qPCR gene expression; assay type: cell-based, human; details: MDA-MB-231, 24 h, 1 µM
Description: as §1

[6] = system: MDA-MB-231 cells; experiment: Annexin V/PI flow cytometry of apoptosis; assay type: cell-based, human; details: MDA-MB-231, 24 h
Description: (§2) Cells were washed twice with cold PBS and resuspended in the Binding Buffer from the Kit. The FITC Annexin V and propidium iodide (PI) were added to 100 µL of cell suspension and incubated for 15 min at room temperature, protected from light. Then, 300 µL of Binding Buffer was added, and samples were analyzed using a flow cytometer. A total of 10,000 events were measured. The FACSDiva software (Version 6.1.3, BD Biosciences Systems, San Jose, CA, USA) was applied to analyze all flow cytometry data. The BD Cytometer Setup and Tracking Beads (BD Biosciences, San Diego, CA, USA) were used for the calibration of the flow cytometer.

[7] = system: MCF-7 cells; experiment: Annexin V/PI flow cytometry of apoptosis; assay type: cell-based, human; details: MCF-7, 24 h
Description: as §2

[8] = system: HCC1954 cells; experiment: Clonogenic assay; assay type: cell-based, human; details: for IC50: Homo sapiens, HCC1954, 72 h exposure, 14 days culture, read-out: IC50 (M ± SD) in clonogenic assay
Description: (§3) The clonogenic assay was carried out utilizing the previously published methodology. The MCF-7, MDA-MB-231, HCC1954, and MCF-10A cells (500 cells/2 mL) were seeded in a 12-well plate overnight. Afterward, studied derivatives or doxorubicin (1, 2.5, 5, 10, and 50 µM) were added to cells. The media was changed after 72 h to a compound-free one, and the cells were cultured for the following 14 days. Then, the cells were washed, fixed, and stained with 0.1% crystal violet. After washing, the plates were dried at room temperature. The colonies were recorded by ImageJ software (Version 1.30). The value of colonies in control (non-treated cells) was accepted as 100%. The effect of compounds on the colony-forming ability of cells was expressed as the percentage of colonies compared to the control.

[9] = system: MDA-MB-231 cells; experiment: Clonogenic assay; assay type: cell-based, human; details: for IC50: Homo sapiens, MDA-MB-231, 72 h exposure, 14 days culture, read-out: IC50 (M ± SD) in clonogenic assay
Description: as §3

[10] = system: MCF-10A cells; experiment: MTT assay; assay type: cell-based, human; details: Homo sapiens, MCF-10A, MCF-10A
Description: The MCF-7 and MDA-MB-231 cells were cultured in the DMEM medium containing 10% of the FBS, HCC1954, T-47D, and 4T1 cells in the RPMI-1640 medium with the addition of 10% of the FBS, and MCF-10A cells in MEGM Mammary Epithelial Cell Growth Medium BulletKit supplemented with penicillin/streptomycin cocktail and 5% of horse serum. The cells were cultured in a […] atmosphere at 5% CO2 and 37 °C. After trypsinization, cells were counted using a Scepter 3.0 handheld automated cell counter (Millipore, Burlington, MA, USA).
The MTT test was used to assess the metabolic activity of cells treated with the investigated substances following the Sigma-Aldrich manufacturer’s instructions. Briefly, compounds were added in 100 µL of the cultural medium, and cells were incubated for the next 24 and 48 h. Doxorubicin was used as a reference drug. The DMSO was added to dissolve the crystals of formazan. We used the ThermoScientific Evolution 201 UV–VIS spectrophotometer (ThermoFisher Scientific, Waltham, MA, USA) to measure the absorbance of formazan at 570 nm. The initial value of the relative number of cells in control (under 0.1% of the DMSO) was accepted as 100%. We used GraphPad Prism Version 9 to calculate the half-maximal inhibition concentration (IC50) of the studied compounds (the concentration of the drug that reduced cell viability by 50%).

[11] = system: MCF-10A cells; experiment: Clonogenic assay; assay type: cell-based; details: Homo sapiens; for IC50: 72 h exposure, 14 days culture, read-out: IC50 (M ± SD) in clonogenic assay
Description: as §3

[12] = system: caspase 3/7 in MDA-MB-231 cells; experiment: Caspase-3/7 activity, FAM-FLICA flow cytometry; details: MDA-MB-231, 24 h
Description: The assay was performed following the manufacturer’s instructions and the previously described methodology [25]. […] The cells were gathered, rinsed twice with chilled PBS, and reconstituted in an Apoptosis Wash Buffer. Then, 10 µL of freshly diluted FLICA solution was added to 290 µL of cell suspension and incubated for an hour at 37 °C. Following two rounds of washing with 2 mL of Apoptosis Wash Buffer, the cells were centrifuged, resuspended in 300 µL of the buffer, and then analyzed [25].

[13] = system: normal human keratinocytes (HaCaT); set-up: method as in PMID 37579525; details: cited from earlier work
[14] = 24 h, 24 h, read-out: IC50, µM (M ± SD)
[15] = 48 h, 48 h, read-out: IC50, µM (M ± SD)

| SMILES | ICAM-1 concentration ([1]; MDA-MB-231, 24 h) [pg/mL] | MAP1LC3B gene expression compared to control cells [2] | BECN1 gene expression compared to control cells [3] | BECN1 gene expression compared to control cells [4] | MAP1LC3B gene expression compared to control cells [5] | early apoptotic cells ([6]; 1 µM) [%] | late apoptotic cells ([6]; 1 µM) [%] | necrotic cells ([6]; 1 µM) | early apoptotic cells ([7]; 1 µM) [%] | late apoptotic cells ([7]; 1 µM) [%] | necrotic cells ([7]; 1 µM) | IC50 [8] [nM] | IC50 [9] [nM] | IC50 [10, 14] [µM] | IC50 [10, 15] [µM] | IC50 [11] [nM] | other results |
| --- | --- | --- | --- | --- | --- | --- | --- | --- | --- | --- | --- | --- | --- | --- | --- | --- | --- |
| COc1cccc2c1C(=O)c1c(O)c3c(c(O)c1C2=O)C[C@@](O)(C(=O)CO)C[C@@H]3O[C@H]1C[C@H](N)[C@H](O)[C@H](C)O1 [Dox, doxorubicin, reference compound] | 583.04 | significantly increased | significantly increased | significantly increased | significantly increased | 0.10 ± 0.01 | 42.20 ± 17.25 | 51.25 ± 3.36% and 51.25% | 0.55 ± 0.07 | 60.60 ± 7.35 | 31.75 ± 5.59% and 31.75% | 430 ± 110 | 420 ± 110 | 15.9 ± 0.91 | 0.23 ± 0.05 | 470 ± 110 | ICAM-1 concentration versus control ([1]; MDA-MB-231, 24 h, 1.0 and 1.5 µM): increased |
| O=C1CC(N2C(=O)C(=CC(Cl)=Cc3ccc([N+](=O)[O-])cc3)SC2=S)C(=O)N1c1ccc(O)cc1 (stereo not shown) [Les-6287, 1-(4-hydroxyphenyl)-3-[5-[2-chloro-3-(4-nitrophenyl)prop-2-enylidene]-4-oxo-2-thioxothiazolidine-3-yl]pyrrolidine-2,5-dione] | 157.25 | did not affect | did not affect | did not affect | did not affect | 2.10 ± 0.14 | 5.10 ± 0.49 | 0.90 ± 0.02% | 3.85 ± 1.20 | 21.60 ± 0.78 | 0.50 ± 0.24% | 430 ± 110 | 420 ± 110 | 93 ± 2.29 | 64.6 ± 0.68 | > 50000 | inhibitory effect on ICAM-1 concentration relative to doxorubicin ([1]; MDA-MB-231): almost four times stronger; cells with active caspase 3/7 ([12]; 1 µM): 17.20 ± 1.58%; cells with active caspase 3/7 ([12]; 1.5 µM): 26.63 ± 8.32%; early apoptotic cells ([6]; 1.5 µM): 5.65 ± 0.92%; late apoptotic cells ([6]; 1.5 µM): 29.00 ± 9.76%; necrotic cells ([6]; 1.5 µM): 4.50 ± 1.82%; necrotic cells, range ([6]; 1 and 1.5 µM): 0.90–4.50%; early apoptotic cells ([7]; 1.5 µM): 2.30 ± 0.42%; late apoptotic cells ([7]; 1.5 µM): 29.35 ± 6.43%; necrotic cells ([7]; 1.5 µM): 0.30 ± 0.11%; necrotic cells, range ([7]; 1 and 1.5 µM): 0.30–0.50%; formation of colonies ([8]; HCC1954, compound at 1 µM): totally inhibited; formation of colonies ([9]; MDA-MB-231, compound at 1 µM): totally inhibited; IC50 ([10]; time point not specified (24 and 48 h), read-out: IC50 towards MCF-10A cells): > 64.6 µM; inhibition at 50 µM ([11]; compound at 50 µM, read-out: inhibition of the formation of colonies): 32.6%; IC50 [13]: > 73600 nM |
